According to US7256201B2, “Selective estrogen receptor-β ligands” (AstraZeneca AB, priority 2000, dated 2007):

What was measured:
human recombinant ERβ = biological target: T1, human recombinant ERβ (Homo sapiens, UniProt Q92731); assay: Fluorescence polarization estrogen receptor (ERFP) binding assay, ERβ; conditions: for Ki: competition with Fluormone ES2, IC50 converted to Ki by Kenakin formula, read-out: FP β-ER Ki; for FP Selectivity: ratio α-ER Ki / β-ER Ki
T1 construct: purchased PanVera (Madison, Wis.)
Description: (§1) A homogeneous mix-and-measure estrogen receptor (ER) binding assay which utilizes fluorescence polarization (FP) technology is used to identify compounds with affinity for the estrogen receptor. Purchased from PanVera (Madison, Wis.), assay reagents include purified human recombinant ERα, human recombinant ERβ, ES2 screening buffer (100 mM potassium phosphate, pH 7.4, 100 μg/mL bovine gamma globulin), and Fluormone™ ES2.
(§2) For competition binding experiments, dilutions of test compounds are prepared at 2× the final assay concentration in 0.2% DMSO in ES2 Screening buffer on TECAN Genosys, and 25 μL compound/well is dispensed into black Costar ½ volume 96-well plates. Dependent upon a lot specific Kd determination, 10-40 nM ERα or 10-40 nM ERβ and 1 nM Fluormone ES2 are then added to these plates in a final assay volume of 50 μL/well. Plates are gently shaken for at least 5 minutes to mix and incubated for at least 1 hr 45 minutes to achieve equilibrium. (Reaction mixtures are stable for up to 5 hours). After centrifugation to remove air bubbles, plates are read on an LJL Analyst or Acquest equipped with Criterion software at the following settings: Fluorescence Polarization Mode; Static Polarizer on Excitation Side; Dynamic Polarizer on Emission Side; Excitation λ=485×/−5 10 nm; Emission λ=520+/−12.5 nm.
(§3) Polarized fluorescence intensity values are collected and subsequently converted electronically to millipolarization (mp) values. Following data reduction and normalization with Excel and/or Prism software, % Ctrl values at the various test concentrations are used to obtain IC50 values via non-linear regression analysis of a four-parameter logistic equation.
(§4) Because ligand depletion is a consideration in this assay (˜40-60% input ES2 is bound in the assay), IC50 values are converted to Ki values through application of the Kenakin formula, as outlined in the reference below, rather than via the more routinely-used Cheng-Prusoff formula.

human recombinant ERα = biological target: T2, human recombinant ERα (Homo sapiens, UniProt P03372); assay: Fluorescence polarization estrogen receptor (ERFP) binding assay, ERα; conditions: competition with Fluormone ES2; IC50 converted to Ki by Kenakin formula; read-out: FP α-ER Ki
T2 construct: purchased PanVera (Madison, Wis.)
T2 sequence (P03372 1-595): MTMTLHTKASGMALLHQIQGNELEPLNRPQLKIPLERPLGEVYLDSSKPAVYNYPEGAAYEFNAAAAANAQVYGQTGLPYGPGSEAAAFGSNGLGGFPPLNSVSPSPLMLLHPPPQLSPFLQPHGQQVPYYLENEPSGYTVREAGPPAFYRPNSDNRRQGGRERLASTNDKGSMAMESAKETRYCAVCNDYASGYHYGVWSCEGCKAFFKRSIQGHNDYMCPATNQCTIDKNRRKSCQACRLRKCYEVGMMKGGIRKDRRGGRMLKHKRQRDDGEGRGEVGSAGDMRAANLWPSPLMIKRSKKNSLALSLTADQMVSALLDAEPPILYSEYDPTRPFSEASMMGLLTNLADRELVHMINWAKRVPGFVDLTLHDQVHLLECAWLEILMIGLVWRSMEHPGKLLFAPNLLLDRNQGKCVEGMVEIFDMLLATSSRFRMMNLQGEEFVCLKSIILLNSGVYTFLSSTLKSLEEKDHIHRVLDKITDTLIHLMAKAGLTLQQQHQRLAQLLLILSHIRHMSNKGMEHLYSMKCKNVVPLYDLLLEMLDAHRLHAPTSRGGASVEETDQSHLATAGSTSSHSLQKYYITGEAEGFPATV
Description: as §1, §2, §3, §4

βER = biological target: T3, βER (Homo sapiens, UniProt Q92731); assay: Cell-based assay for ER transcriptional activity (ERE β-gal reporter), βER-transfected 293 cells; conditions: for EC50 / ERE β-ER Max: 293 cells transfected with βER and ERE reporter; for ERE β-ER Max: maximal response, unit assumed; for ERE Selectivity: ratio α-ER EC50 / β-ER EC50
T3 construct: expressed in transfected cells; host or cells: 293 cells (Human Embryonic Kidney, ATCC CRL-1573)
Description: (§5) ERs are ligand-dependent transcription factors that bind the promoter regions of genes at a consensus DNA sequence called the estrogen responsive element (ERE). The ER agonist or antagonist activity of a drug was determined by measuring the amount of reporter enzyme activity expressed from a plasmid under the control of an estrogen-responsive element when cells transiently transfected with ER and the reporter plasmid were exposed to drug. These experiments were conducted according to the following methods.
(§6) Estrogen Receptors alpha (αER, Gen Bank accession #M12674), and beta (βER, Gen Bank #X99101 were cloned into the expression vector pSG5 (Stratagene). A trimer of the vitellogenin-gene estrogen response element (vitERE) was synthesized as an oligonucleotide and attached to a beta-globin basal promoter in a construct named pERE3 gal. This response element and promoter were removed from pERE3 gal by digestion with the endonucleases SpeI (filled with Klenow fragment) and HindIII. This blunt/Hind III fragment was cloned into the β-galactosidase (β-gal) enhancer reporter plasmid (pBGALenh, Stratagene). αER and βER plasmids were purified using a the Endo Free Maxi Kit (Qiagen), and the DNA concentration and purity (A260/280 ratio) were determined spectrophotometrically (Pharmacia). Only DNA with A260/280 ratio of 1.8 and a concentration of >1 ug/uL was used for transfections.
(§7) All Transfections are performed in 293 cells (Human Embryonic Kidney cells ATCC #CRL-1573). Cells are grown in DMEM supplemented with 10% FBS, glutamine, sodium pyruvate and penicilin/streptomycin. Cells are grown to 70% confluency and split 1:4.
(§8) • 1. 293 cells are split the night before onto collagen I-coated 150 mm tissue-culture plates (Biocoat, Becton Dickinson #354551) at a density of 60-70% in DMEM Mediatech 17-205-CV) 10% charcoal-stripped FBS (biocell #6201-31). Approximately 1×10^7 cells/plate will yield 70% confluency. • 2. The next morning, 1 hour prior to transfection, the media is changed to fresh DMEM 10% FBS stripped and supplements. • 3. Transfections are performed using the Profection Kit (Promega #E1200). This kit is based on the calcium-phosphate-mediated transfection technique. Reagents are added in sterile polystyrene tubes in the following order:
(§9) Solution A • 15 μg αER or βER • 45 μg Reporter (pBGALenh or ERE3) • 1.5 mL Sterile Water • 186 μL CaCl2 • *Mix gently
(§10) Solution B • 1.5 mL 2× Hank's Buffered Salt Solution • 4. Using a vortex set on low, add solution A to solution B dropwise. The resulting solution should become milky in color. It is important to achieve thorough mixing. The solution is allowed to settle for 30 minutes, then vortexed before adding the solution to cells. • 5. Add the mixture to 150 mm plates dropwise. Mix well by rocking plates back and forth and side to side gently. After an hour, a very fine precipitate should be seen floating on and above cells under 20× magnification. If this precipitate is not observed, the transfection will not be effective. Incubate the cells for 12 hours. Receptor Stimulation: • 1. The day after transfection, cells are washed 2× with calcium- and magnesium-free Mg free PBS containing 1 mM EGTA (pH 7.6). Cells are trypsinized for 2 min with 3 mL of trypsin-EDTA. Trypsin is neutralized with DMEM 10% FCS. Cells are pelleted at 1000×g for 5 min. The cell pellet is then resuspended in 5 mL DMEM plus 2% phenol-red-free FCS supplemented with glutamine, pyruvate, and Penn/Strep. • 2. 50 μl of the resulting cell suspension is plated into each well of 96-well tissue culture dishes (Biocoat B&D #354407) using a multi-channel pipettor. The dishes have been previously loaded with 50 μL of DMSO-solubilized test compounds at twice the test concentration in DMEM. Data reported are either n=4 wells (single poke) and n=2 wells (9-point concentration-response curves). • 3. Cells are incubated overnight at 37° C. in the selected compounds. Reporter Assay: • 1. […]

αER = biological target: T4, αER (Homo sapiens, UniProt P03372); assay: Cell-based assay for ER transcriptional activity (ERE β-gal reporter), αER-transfected 293 cells; conditions: 293 cells transfected with αER and ERE reporter; for ERE α-ER Max: maximal response, unit assumed; for EC50: read-out: ERE α-ER EC50
T4 construct: expressed in transfected cells; host or cells: 293 cells (Human Embryonic Kidney, ATCC CRL-1573)
T4 sequence (P03372 1-595): T2 sequence (P03372 1-595)
Description: as §5, §6, §7, §8, §9, §10

T3 sequence (Q92731 54-530 limits assumed): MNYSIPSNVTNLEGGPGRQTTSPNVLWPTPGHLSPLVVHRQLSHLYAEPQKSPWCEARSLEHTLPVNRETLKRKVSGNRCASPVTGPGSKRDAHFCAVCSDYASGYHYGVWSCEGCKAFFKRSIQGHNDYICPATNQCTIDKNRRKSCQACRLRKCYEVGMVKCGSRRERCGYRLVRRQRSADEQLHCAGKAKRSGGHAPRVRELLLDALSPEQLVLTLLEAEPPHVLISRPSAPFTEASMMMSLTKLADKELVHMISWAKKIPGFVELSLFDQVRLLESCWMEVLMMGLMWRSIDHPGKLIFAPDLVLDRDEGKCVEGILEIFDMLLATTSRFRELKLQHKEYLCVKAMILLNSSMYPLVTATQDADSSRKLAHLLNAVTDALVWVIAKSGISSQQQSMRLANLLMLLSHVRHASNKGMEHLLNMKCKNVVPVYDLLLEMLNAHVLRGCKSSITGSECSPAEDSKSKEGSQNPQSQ
T1 sequence (Q92731 whole entry): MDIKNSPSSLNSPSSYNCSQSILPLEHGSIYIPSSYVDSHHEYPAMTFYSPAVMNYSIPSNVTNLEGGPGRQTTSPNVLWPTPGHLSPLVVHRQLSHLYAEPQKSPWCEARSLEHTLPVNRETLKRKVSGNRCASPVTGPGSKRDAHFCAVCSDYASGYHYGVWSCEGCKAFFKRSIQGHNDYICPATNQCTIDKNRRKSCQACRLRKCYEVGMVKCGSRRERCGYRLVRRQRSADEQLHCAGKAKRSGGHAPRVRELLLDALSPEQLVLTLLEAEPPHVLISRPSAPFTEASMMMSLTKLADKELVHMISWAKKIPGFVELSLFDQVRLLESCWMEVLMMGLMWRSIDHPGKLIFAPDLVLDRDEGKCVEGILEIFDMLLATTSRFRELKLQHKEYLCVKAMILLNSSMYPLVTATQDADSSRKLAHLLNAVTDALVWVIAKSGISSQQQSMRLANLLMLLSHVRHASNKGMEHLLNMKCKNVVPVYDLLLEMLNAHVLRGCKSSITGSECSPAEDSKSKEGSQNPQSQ

| Molecule | Ki (human recombinant ERβ) | FP Selectivity (human recombinant ERβ) | Ki (human recombinant ERα) | EC50 (βER) | ERE β-ER Max (βER) | ERE Selectivity (βER) | ERE α-ER Max (αER) | EC50 (αER) |
| --- | --- | --- | --- | --- | --- | --- | --- | --- |
| Oc1ccc(N2Cc3ccc(O)cc3C2)cc1 [Example 25, 5-Hydroxy-2-(4-hydroxyphenyl)isoindoline] | 55 nM | 3.5 | 190 nM | 161 nM | 77% | 1.2 | 60% | 192 nM |
| CC1c2ccc(O)cc2CCN1c1cccc(O)c1 (stereo not shown) [Example 17, 2-(3-Hydroxy-phenyl)-1-methyl-1,2,3,4-tetrahydro-isoquinolin-6-ol] | 34 nM | 3.3 | 110 nM | 49 nM | 72% | 0.1 | 87% | 2.5 nM |
| CCC1c2cc(O)ccc2CN1c1ccc(O)cc1 (stereo not shown) [Example 26, 1-Ethyl-6-hydroxy-2-(4-hydroxyphenyl)isoindoline] | 160 nM | 1.3 | 200 nM | 79 nM | 85% | 0.9 | 102% | 73 nM |
| Cc1ccc(N2CCc3cc(O)ccc3C2c2ccccc2)cc1O (stereo not shown) [Example 20, 2-(3-Hydroxy-4-methyl-phenyl)-1-phenyl-1,2,3,4-tetrahydro-isoquinolin-6-ol] | 1.2 nM | 2.5 | 3 nM | 0.4 nM | 85% | 3.3 | 75% | 1.2 nM |
| Cc1ccccc1C1c2ccc(O)cc2CCN1c1ccc(O)cc1 (stereo not shown) [Example 12, 2-(4-Hydroxyphenyl)-1-o-tolyl-1,2,3,4-tetrahydroisoquinolin-6-ol] | 8 nM | 2.2 | 16 nM |  | 71% |  | 113% |  |
| Cc1ccc(N2CCc3cc(O)ccc3C2c2ccoc2)cc1O (stereo not shown) [Example 21, 1-Furan-3-yl-2-(3-hydroxy-4-methyl-phenyl)-1,2,3,4-tetrahydro-isoquinolin-6-ol] | 3.8 nM | 6.0 | 22 nM | 0.7 nM | 106% | 1.1 | 77% | 0.8 nM |
| CCC1c2ccc(O)cc2CCN1c1ccc(O)c(Cl)c1 (stereo not shown) [Example 19, 2-(3-Chloro-4-hydroxy-phenyl)-1-ethyl-1,2,3,4-tetrahydro-isoquinolin-6-ol] | 24.4 nM | 3.0 | 72 nM | 209 nM | 41% | 0.1 | 66% | 16.8 nM |
| Oc1ccc(N2CCc3cc(O)ccc3C2c2ccccc2)cc1 (stereo not shown) [Example 6, 2-(4Hydroxyphenyl)-1-phenyl-1,2,3,4-tetrahydroisoquinolin-6-ol] | 10 nM | 0.9 | 10 nM | 7.6 nM | 105% | 0.1 | 100% | 0.6 nM |
| Oc1ccc(N2CCc3cc(O)ccc3C2c2ccc(Cl)cc2Cl)cc1 (stereo not shown) [Example 10, 1-(2,4-Dichlorophenyl)-2-(4-hydroxyphenyl)-1,2,3,4-tetrahydroisoquinolin-6-ol] | 7 nM | 1.6 | 11 nM |  | 44% |  | 95% |  |
| 6-Hydroxy-2-(4-hydroxyphenyl)-1-phenylisoindoline and 5-hydroxy-2-(4-hydroxyphenyl)-1-phenylisoindoline [Example 27] | 190 nM | 0.9 | 170 nM | 34 nM | 90% | 0.2 | 54% | 6.8 nM |
| Cc1cc(O)ccc1N1CCc2cc(O)ccc2C1 [Example 3, 2-(4-Hydroxy-2-methylphenyl)-1,2,3,4-tetrahydroisoquinolin-6-ol] | 8 nM | 7.4 | 60 nM | 35.7 nM | 103% | 0.8 | 93% | 28.2 nM |
